Measured values as given in patent US20240415804A1, “METHOD OF TREATING PANCREATIC CANCER” (University of South Florida, priority 2022, published 2024).

Legend:
Bcl-2 = assay: Western blot of Bcl-2 protein in UN-KC-6141 cells; assay type: cell-based, mouse; settings: API 40 μM
Method: Single-cell suspensions of BM, digested pancreatic tumors cells and UN-KC-6141 cells treated with API (40 μM) were lysed with radioimmunoprecipitation buffer (Sigma-Aldrich), quantified with a BCA Protein Assay kit (Thermo Fisher Scientific, Waltham, MA, USA), resolved by SDS-PAGE (Thermo Fisher Scientific) and transferred onto a nitrocellulose membrane as previously described. Membranes were probed with either anti-SHIP-1 (Santa Cruz Biotechnology, Dallas, TX, USA), anti-iNOS (Cell Signaling Technology) or anti-Bcl-2 (Cell Signaling Technology, Danvers, MA, USA), all at a dilution of 1:1000. All blots were re-probed with a housekeeping protein, HRP-conjugated anti-β-actin (Sigma-Aldrich), at a dilution of 1:20,000. Membranes were then probed with the respective secondary anti-mouse or rabbit IgG HRP-conjugated antibodies (1:1000) of SHIP-1 and iNOS. Detection of SHIP-1, iNOS and β-actin proteins was performed using Super Signal West Pico or Femto Chemiluminescent Substrates (Thermo Fisher Scientific) and then imaged on a Bio-Rad Chemi Doc XRS Imaging System. Normalized densitometric ratios (divided by β-actin) were determined by quantifying WB results using Image J.

SHIP-1 = SHIP-1 gene and protein expression in OPC mice; assay type: in vivo, mouse; settings: API 25 mg/kg IP 3 times per week for 2-3 weeks, vs OPC mice
Method: The inventors reported recently that API reduced tumor growth in an orthotopic (O) mouse model of PC (OPC)^12, which is a more clinically relevant model^69. To investigate if API targets miR-155 and regulates SHIP-1 expression in the BM and tumor of an OPC mouse model, OPC mice were treated with API at a dose of 25 mg/kg (IP) 3 times per week for 2-3 weeks.
To generate orthotopic pancreatic models (OPC), anesthetized (1.5-3% isoflurane) mice were injected in the neck of the pancreas, via laparotomy^59, with sterile PBS (CTRL) or 1.25×10^4 Panc02 cells (OPC), in sterile 1×PBS. […]
Isolation of total RNA from digested pancreatic tumors and BM cells was performed using a RNeasy Mini Kit (Qiagen), according to the manufacturer's instructions. RT-PCR of quantified and normalized total RNA was performed using a High-Capacity cDNA RT Kit with an RNase Inhibitor (Applied Biosystems), according to the manufacturer's instructions. […]
Single-cell suspensions of BM, digested pancreatic tumors cells and UN-KC-6141 cells treated with API (40 μM) were lysed with radioimmunoprecipitation buffer (Sigma-Aldrich), quantified with a BCA Protein Assay kit (Thermo Fisher Scientific, Waltham, MA, USA), resolved by SDS-PAGE (Thermo Fisher Scientific) and transferred onto a nitrocellulose membrane as previously described. […]

## O=c1cc(-c2ccc(O)cc2)oc2cc(O)cc(O)c12 [API, 40,5,7-Trihydroxyflavone, 5,7-Dihydroxy-2-(4-hydroxyphenyl)-4-benzopyrone]
Bcl-2
  Bcl-2 protein expression (WB): significant decrease
SHIP-1
  SHIP-1 gene expression in BM: significantly increased
  SHIP-1 protein expression in BM: significantly increased
